Data set [1] relates to Echinochloa oryzoides (Ard.) Fritsch. Nature of the data set: Preemergence weed control under flooded paddy conditions, ECHORC (Watergrass (Calif.)). The note with it: preemergence weeds, flooded paddy, rated three to four weeks after treatment. It counts as in vivo.
A further data set relates to Cyperus iria. Put plainly: Preemergence weed control under flooded paddy conditions, CYPIR (Rice Flatsedge). The following applies: preemergence weeds, flooded paddy, rated three to four weeks after treatment. It counts as in vivo.
The subject of data set [2] is Cyperus serotinus, Rottb. Nature of the data set: Preemergence weed control under flooded paddy conditions, CYPSE (Flatsedge). It is filed as in vivo. The note with it: preemergence weeds, rated three to four weeks after treatment.
For a further data set, the system named is Sagittaria pygmaea, L. Put plainly: Preemergence weed control under flooded paddy conditions, SAGPY (Arrowhead (Pygmaea)). It counts as in vivo. The note with it: preemergence weeds, flooded paddy, rated three to four weeks after treatment.
Data set [3] concerns Oryza sativa, (L.) Tebonnet. Nature of the data set: Rice tolerance to post-transplant applications under flooded paddy conditions (Example 187), ORYSAT (Rice, Tebonnet). The following applies: rated three to four weeks after treatment.

The values that follow come from patent EP0908457B1, “3-(1,2-benzisothiazol- and isoxazol-5-Y1)-2,4(1H,3H)-pyrimidinedione or thione and 3-(1,2-benzisothiazol- and isoxazol-5-y1)-4(3H)-pyrimidinone or thione herbicidal agents” (BASF AKTIENGESELLSCHAFT, priority 1997, dated 1999).
Also: meaning of each grade not given here.

`Cn1c(C(F)(F)F)cc(=O)n(-c2ccc3snc(C(=O)CCl)c3c2)c1=O` [Example 338, 2,4(1H,3H)-Pyrimidinedione, 3-[3-(chloroacetyl)-1,2-benzisothiazol-5-yl]-1-methyl-6-(trifluoromethyl)-]: the “herbicidal effect rating, ECHORC” value in data set [1] (Rate 0.0320 kg/ha) is on record as 2.0; in data set [1] (Rate 0.0620 kg/ha) it was 2.0; in data set [1] (Rate 0.1250 kg/ha), 4.0; in data set [1] (Rate 0.2500 kg/ha) it was 9.0. Further, the “herbicidal effect rating, CYPIR” value was determined as 3.0 in the data set on Cyperus iria (Rate 0.0320 kg/ha), 3.0 in the data set on Cyperus iria (Rate 0.0620 kg/ha), 3.0 in the data set on Cyperus iria (Rate 0.1250 kg/ha) and 8.0 in the data set on Cyperus iria (Rate 0.2500 kg/ha). Further, the “herbicidal effect rating, CYPSE” value in data set [2] (Rate 0.0320 kg/ha) is recorded as 0.0; in data set [2] (Rate 0.0620 kg/ha), 0.0; in data set [2] (Rate 0.1250 kg/ha), 0.0; in data set [2] (Rate 0.2500 kg/ha), 5.0. The “herbicidal effect rating, SAGPY” value in the data set on Sagittaria pygmaea, L. (Rate 0.0320 kg/ha) was determined as 0.0; in the data set with Sagittaria pygmaea, L. (Rate 0.0620 kg/ha), 2.0; in the data set on Sagittaria pygmaea, L. (Rate 0.1250 kg/ha), 2.0; in the data set with Sagittaria pygmaea, L. (Rate 0.2500 kg/ha), 5.0. Moreover, the “herbicidal effect rating ORYSAT” value came out at 0.0 in data set [3] (Rate 0.0320 kg/ha), 0.0 in data set [3] (Rate 0.0620 kg/ha), 3.0 in data set [3] (Rate 0.1250 kg/ha) and 6.0 in data set [3] (Rate 0.2500 kg/ha).
For the compound `CC(Br)c1nsc2ccc(-n3c(=O)cc(C(F)(F)F)n(C)c3=O)cc12` (centres unmarked) [Example 339, 2,4(1H,3H)-Pyrimidinedione, 3-[3-(1-bromoethyl)-1,2-benzisothiazol-5-yl]-1-methyl-6-(trifluoromethyl)-], the “herbicidal effect rating, ECHORC” value in data set [1] (Rate 0.0320 kg/ha) came out at 0.0; in data set [1] (Rate 0.0620 kg/ha), 0.0; in data set [1] (Rate 0.1250 kg/ha) it was 4.0; in data set [1] (Rate 0.2500 kg/ha), 6.0. Moreover, the “herbicidal effect rating, CYPIR” value worked out at 4.0 in the data set on Cyperus iria (Rate 0.0320 kg/ha), 4.0 in the data set with Cyperus iria (Rate 0.0620 kg/ha), 7.0 with Cyperus iria (Rate 0.1250 kg/ha) and 7.0 in the data set with Cyperus iria (Rate 0.2500 kg/ha). The “herbicidal effect rating, CYPSE” value in data set [2] (Rate 0.0320 kg/ha) was 0.0; in data set [2] (Rate 0.0620 kg/ha), 0.0; in data set [2] (Rate 0.1250 kg/ha), 6.0; in data set [2] (Rate 0.2500 kg/ha) it was 9.0. Also, the “herbicidal effect rating, SAGPY” value with Sagittaria pygmaea, L. (Rate 0.0320 kg/ha) is given as 5.0; in the data set on Sagittaria pygmaea, L. (Rate 0.0620 kg/ha), 5.0; with Sagittaria pygmaea, L. (Rate 0.1250 kg/ha), 5.0; in the data set with Sagittaria pygmaea, L. (Rate 0.2500 kg/ha), 9.0. Besides, the “herbicidal effect rating ORYSAT” value is given as 5.0 in data set [3] (Rate 0.0320 kg/ha), 7.0 in data set [3] (Rate 0.0620 kg/ha), 9.0 in data set [3] (Rate 0.1250 kg/ha) and 9.0 in data set [3] (Rate 0.2500 kg/ha).
As to `Cn1c(C(F)(F)F)cc(=O)n(-c2ccc3snc(C(C)(Br)Br)c3c2)c1=O` [Example 340, 2,4(1H,3H)-Pyrimidinedione, 3-[3-(1,1-dibromoethyl)-1,2-benzisothiazol-5-yl]-1-methyl-6-(trifluoromethyl)-], the “herbicidal effect rating, ECHORC” value is 5.0 in data set [1] (Rate 0.0320 kg/ha), 6.0 in data set [1] (Rate 0.0620 kg/ha), 9.0 in data set [1] (Rate 0.1250 kg/ha) and 9.0 in data set [1] (Rate 0.2500 kg/ha). Moreover, the “herbicidal effect rating, CYPIR” value was 2.0 with Cyperus iria (Rate 0.0320 kg/ha), 5.0 with Cyperus iria (Rate 0.0620 kg/ha), 7.0 with Cyperus iria (Rate 0.1250 kg/ha) and 9.0 with Cyperus iria (Rate 0.2500 kg/ha). Also, the “herbicidal effect rating, CYPSE” value is 3.0 in data set [2] (Rate 0.0320 kg/ha), 3.0 in data set [2] (Rate 0.0620 kg/ha), 6.0 in data set [2] (Rate 0.1250 kg/ha) and 7.0 in data set [2] (Rate 0.2500 kg/ha). Further, the “herbicidal effect rating, SAGPY” value came to 4.0 in the data set on Sagittaria pygmaea, L. (Rate 0.0320 kg/ha); 4.0 in the data set with Sagittaria pygmaea, L. (Rate 0.0620 kg/ha); 5.0 in the data set with Sagittaria pygmaea, L. (Rate 0.1250 kg/ha); 7.0 with Sagittaria pygmaea, L. (Rate 0.2500 kg/ha). The “herbicidal effect rating ORYSAT” value amounted to 5.0 in data set [3] (Rate 0.0320 kg/ha), 6.0 in data set [3] (Rate 0.0620 kg/ha), 7.0 in data set [3] (Rate 0.1250 kg/ha) and 9.0 in data set [3] (Rate 0.2500 kg/ha).
Consider `CSc1ccc(C)cc1-c1nsc2ccc(-n3c(=O)cc(C(F)(F)F)n(C)c3=O)cc12` [Example 342, 2,4(1H,3H)-Pyrimidinedione, 1-methyl-3-{3-[6-(methylthio)-m-tolyl]-1,2-benzisothiazol-5-yl}-6-(trifluoromethyl)-], for which the “herbicidal effect rating, ECHORC” value in data set [1] (Rate 0.0320 kg/ha) was 4.0; in data set [1] (Rate 0.0620 kg/ha), 4.0; in data set [1] (Rate 0.1250 kg/ha) it was 7.0; in data set [1] (Rate 0.2500 kg/ha), 7.0. For the same compound, the “herbicidal effect rating, CYPIR” value in the data set with Cyperus iria (Rate 0.0320 kg/ha) is listed as 0.0; in the data set with Cyperus iria (Rate 0.0620 kg/ha) it was 0.0; in the data set on Cyperus iria (Rate 0.1250 kg/ha), 4.0; in the data set on Cyperus iria (Rate 0.2500 kg/ha), 8.0. Further, the “herbicidal effect rating, CYPSE” value came out at 0.0 in data set [2] (Rate 0.0320 kg/ha), 0.0 in data set [2] (Rate 0.0620 kg/ha), 0.0 in data set [2] (Rate 0.1250 kg/ha) and 9.0 in data set [2] (Rate 0.2500 kg/ha). In addition, the “herbicidal effect rating, SAGPY” value with Sagittaria pygmaea, L. (Rate 0.0320 kg/ha) was 0.0; in the data set on Sagittaria pygmaea, L. (Rate 0.0620 kg/ha), 0.0; in the data set with Sagittaria pygmaea, L. (Rate 0.1250 kg/ha) it was 0.0; in the data set on Sagittaria pygmaea, L. (Rate 0.2500 kg/ha), 2.0. The “herbicidal effect rating ORYSAT” value in data set [3] (Rate 0.0320 kg/ha) was found to be 0.0; in data set [3] (Rate 0.0620 kg/ha), 0.0; in data set [3] (Rate 0.1250 kg/ha) it was 2.0; in data set [3] (Rate 0.2500 kg/ha), 3.0.
As to `Cn1c(C(F)(F)F)cc(=O)n(-c2ccc3snc(-c4ccccc4OCC(=O)NS(=O)(=O)CCl)c3c2)c1=O` [Example 344, Acetamide, N-[(chloromethyl)sulfonyl]-2-{o-{5-[3,6-dihydro-3-methyl-2,6-dioxo-4-(trifluoromethyl)-1(2H)-pyrimidinyl]-1,2-benzisothiazol-3-yl}phenoxy}-], the “herbicidal effect rating, ECHORC” value in data set [1] (Rate 0.0320 kg/ha) was found to be 4.0; in data set [1] (Rate 0.0620 kg/ha), 7.0; in data set [1] (Rate 0.1250 kg/ha) it was 7.0; in data set [1] (Rate 0.2500 kg/ha), 9.0. Further, the “herbicidal effect rating, CYPIR” value came to 6.0 in the data set on Cyperus iria (Rate 0.0320 kg/ha), 6.0 in the data set with Cyperus iria (Rate 0.0620 kg/ha), 7.0 in the data set on Cyperus iria (Rate 0.1250 kg/ha) and 9.0 in the data set with Cyperus iria (Rate 0.2500 kg/ha). Also, the “herbicidal effect rating, CYPSE” value in data set [2] (Rate 0.0320 kg/ha), in data set [2] (Rate 0.0620 kg/ha), in data set [2] (Rate 0.1250 kg/ha) and in data set [2] (Rate 0.2500 kg/ha) was 6.0 throughout. The “herbicidal effect rating, SAGPY” value with Sagittaria pygmaea, L. (Rate 0.0320 kg/ha) was found to be 0.0; with Sagittaria pygmaea, L. (Rate 0.0620 kg/ha) it was 0.0; in the data set with Sagittaria pygmaea, L. (Rate 0.1250 kg/ha), 3.0; in the data set on Sagittaria pygmaea, L. (Rate 0.2500 kg/ha) it was 6.0. Further, the “herbicidal effect rating ORYSAT” value in data set [3] (Rate 0.0320 kg/ha) is on record as 2.0; in data set [3] (Rate 0.0620 kg/ha), 5.0; in data set [3] (Rate 0.1250 kg/ha), 5.0; in data set [3] (Rate 0.2500 kg/ha) it was 9.0.
Regarding `COC(=O)COc1ccc(OC)cc1-c1nsc2ccc(-n3c(=O)cc(C(F)(F)F)n(C)c3=O)cc12` [Example 347, Acetic acid, {2-{5-[3,6-dihydro-3-methyl-2,6-dioxo-4-(trifluoromethyl)-1(2H)-pyrimidinyl]-1,2-benzisothiazol-3-yl}-4-methoxyphenoxy}-, methyl ester], the “herbicidal effect rating, ECHORC” value in data set [1] (Rate 0.0320 kg/ha) was found to be 7.0; in data set [1] (Rate 0.0620 kg/ha) it was 9.0; in data set [1] (Rate 0.1250 kg/ha), 9.0; in data set [1] (Rate 0.2500 kg/ha), 9.0. For the same compound, the “herbicidal effect rating, CYPIR” value in the data set with Cyperus iria (Rate 0.0320 kg/ha) is given as 7.0; in the data set on Cyperus iria (Rate 0.0620 kg/ha), 9.0; in the data set with Cyperus iria (Rate 0.1250 kg/ha), 9.0; with Cyperus iria (Rate 0.2500 kg/ha), 9.0. The “herbicidal effect rating, CYPSE” value in data set [2] (Rate 0.0320 kg/ha) stood at 0.0; in data set [2] (Rate 0.0620 kg/ha), 0.0; in data set [2] (Rate 0.1250 kg/ha), 4.0; in data set [2] (Rate 0.2500 kg/ha), 7.0. For the same compound, the “herbicidal effect rating, SAGPY” value came out at 2.0 in the data set on Sagittaria pygmaea, L. (Rate 0.0320 kg/ha); 3.0 with Sagittaria pygmaea, L. (Rate 0.0620 kg/ha); 4.0 in the data set on Sagittaria pygmaea, L. (Rate 0.1250 kg/ha); 5.0 with Sagittaria pygmaea, L. (Rate 0.2500 kg/ha). Further, the “herbicidal effect rating ORYSAT” value in data set [3] (Rate 0.0320 kg/ha) was found to be 3.0; in data set [3] (Rate 0.0620 kg/ha), 6.0; in data set [3] (Rate 0.1250 kg/ha) it was 7.0; in data set [3] (Rate 0.2500 kg/ha) it was 9.0.
As to `COC(=O)C(C)Oc1ccc(OC)cc1-c1nsc2ccc(-n3c(=O)cc(C(F)(F)F)n(C)c3=O)cc12` (centres unmarked) [Example 348, Propionic acid, 2-{2-{5-[3,6-dihydro-3-methyl-2,6-dioxo-4-(trifluoromethyl)-1(2H)-pyrimidinyl]-1,2-benzisothiazol-3-yl}-4-methoxyphenoxy}-, methyl ester], the “herbicidal effect rating, ECHORC” value is listed as 6.0 in data set [1] (Rate 0.0320 kg/ha), 6.0 in data set [1] (Rate 0.0620 kg/ha), 7.0 in data set [1] (Rate 0.1250 kg/ha) and 9.0 in data set [1] (Rate 0.2500 kg/ha). Further, the “herbicidal effect rating, CYPIR” value with Cyperus iria (Rate 0.0320 kg/ha) worked out at 0.0; with Cyperus iria (Rate 0.0620 kg/ha), 0.0; in the data set on Cyperus iria (Rate 0.1250 kg/ha), 6.0; in the data set with Cyperus iria (Rate 0.2500 kg/ha), 9.0. The “herbicidal effect rating, CYPSE” value in data set [2] (Rate 0.0320 kg/ha), in data set [2] (Rate 0.0620 kg/ha), in data set [2] (Rate 0.1250 kg/ha) and in data set [2] (Rate 0.2500 kg/ha) was 0.0 in each case. Besides, the “herbicidal effect rating, SAGPY” value worked out at 4.0 in the data set with Sagittaria pygmaea, L. (Rate 0.0320 kg/ha); 6.0 in the data set with Sagittaria pygmaea, L. (Rate 0.0620 kg/ha); 7.0 in the data set with Sagittaria pygmaea, L. (Rate 0.1250 kg/ha); 9.0 with Sagittaria pygmaea, L. (Rate 0.2500 kg/ha). The “herbicidal effect rating ORYSAT” value is 2.0 in data set [3] (Rate 0.0320 kg/ha), 3.0 in data set [3] (Rate 0.0620 kg/ha), 4.0 in data set [3] (Rate 0.1250 kg/ha) and 5.0 in data set [3] (Rate 0.2500 kg/ha).
